Laboratory results from ChEMBL document CHEMBL4130359, “Indazole-based ligands for estrogen-related receptor α as potential anti-diabetic agents” (Eur J Med Chem, 2017).
Active and inactive are the calls of the source. No cut-off for these calls is given here.

What was measured:
Rattus norvegicus [1] = assay: Effect on MAOB gene expression in epididymal white adipose tissue of Zucker rat sub-chronic fa/fa prediabetic model at 10 mg/kg, po qd for 15 days by microarray analysis relative to control; assay type: functional
[2] = target: Peroxisome proliferator-activated receptor delta (Homo sapiens, UniProt Q03181); assay: Agonist activity at recombinant GST-tagged human PPARdelta LBD assessed as fluorescein-labeled coactivator peptide recruitment preincubated with enzyme followed by coactivator addition by LanthaScreen TR-FRET assay
Chain of Peroxisome proliferator-activated receptor delta (Q03181 whole entry, the tested form may be a part): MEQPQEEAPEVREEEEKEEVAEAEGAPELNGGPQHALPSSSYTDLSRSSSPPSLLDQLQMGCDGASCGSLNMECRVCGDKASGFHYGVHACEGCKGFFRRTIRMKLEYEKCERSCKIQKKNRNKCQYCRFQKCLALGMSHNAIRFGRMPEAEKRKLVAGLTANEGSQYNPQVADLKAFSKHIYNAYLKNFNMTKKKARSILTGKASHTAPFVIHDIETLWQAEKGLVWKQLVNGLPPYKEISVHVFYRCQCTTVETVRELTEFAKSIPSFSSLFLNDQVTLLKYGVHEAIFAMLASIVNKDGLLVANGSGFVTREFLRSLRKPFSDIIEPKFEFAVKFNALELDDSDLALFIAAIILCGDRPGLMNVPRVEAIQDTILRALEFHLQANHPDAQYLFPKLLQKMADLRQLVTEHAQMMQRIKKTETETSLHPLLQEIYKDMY

[3] = Cmax in […] chronic ob/ob model at 3 mg/kg, po qd measured on day 1 post dose; assay type: ADME, organism-based; design: dose 3 mg/kg, route oral; settings: in vivo
[4] = Volume of distribution at steady state in CD-1 mouse at 5 mg/kg, iv by LC-MS analysis; assay type: ADME, organism-based; settings: in vivo, read-out: Vdss
[5] = target: T1, Retinoic acid receptor RXR-alpha (Homo sapiens, UniProt P19793); assay: Antagonist activity at recombinant GST-tagged human RXRalpha LBD assessed as inhibition of 9-cis-retinoic acid-induced fluorescein-labeled coactivator peptide recruitment preincubated with enzyme followed by coactivator addition by LanthaScreen TR-FRET assay
T1 sequence (P19793 whole entry, the tested form may be a part): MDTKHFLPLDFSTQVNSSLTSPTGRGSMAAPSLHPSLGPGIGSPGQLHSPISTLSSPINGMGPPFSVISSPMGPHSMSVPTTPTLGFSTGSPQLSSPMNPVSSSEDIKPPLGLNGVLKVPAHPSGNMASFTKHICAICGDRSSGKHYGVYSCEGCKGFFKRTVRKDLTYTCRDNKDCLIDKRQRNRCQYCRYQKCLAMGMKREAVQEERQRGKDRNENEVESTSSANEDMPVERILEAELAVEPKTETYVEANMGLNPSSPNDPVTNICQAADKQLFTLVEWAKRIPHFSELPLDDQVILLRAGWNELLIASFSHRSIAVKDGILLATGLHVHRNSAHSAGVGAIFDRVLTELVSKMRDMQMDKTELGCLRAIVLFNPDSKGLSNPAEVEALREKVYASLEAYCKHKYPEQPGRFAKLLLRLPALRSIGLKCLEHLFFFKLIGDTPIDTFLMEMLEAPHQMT

Homo sapiens = species on record: Homo sapiens; assay: Inhibition of picrotoxin binding to chloride channel (unknown origin) at 10 uM relative to control
Rattus norvegicus [6] = assay: Effect on HMGCS2 gene expression in epididymal white adipose tissue of Zucker rat sub-chronic fa/fa prediabetic model at 10 mg/kg, po qd for 15 days by microarray analysis relative to control; assay type: functional
Rattus norvegicus [7] = assay: Effect on HLA-DMB gene expression in epididymal white adipose tissue of Zucker rat sub-chronic fa/fa prediabetic model at 10 mg/kg, po qd for 15 days by microarray analysis relative to control; assay type: functional
[8] = Tmax in ob/ob mouse at 18 mg/kg administered via oral gavage by LC-MS analysis; assay type: ADME, organism-based; settings: in vivo
Rattus norvegicus [9] = assay: Antidiabetic activity in Zucker rat sub-chronic fa/fa prediabetic model assessed as fasting blood insulin level at 3 mg/kg, po qd for 31 days measured on day 29 post dose (reference value: 8.5 +/- 1.4 ug/L); assay type: functional
Rattus norvegicus [10] = assay: Toxicity in […] model assessed as serum BUN level at 10 mg/kg, po qd for 31 days measured on day 32 (reference value: 28.3 +/- […]); assay type: organism-based; settings: in vivo, 744 h
Rattus norvegicus [11] = assay: Antidiabetic activity in Zucker rat sub-chronic fa/fa prediabetic model assessed as blood glucose AUC (0 to 120 min) at 50 mg/kg, po qd for 31 days measured on day 29 post dose by OGTT (reference value: 41471 +/- 2451 mg.min/dL); assay type: functional
[12] = Drug uptake in plasma of Zucker rat sub-chronic fa/fa prediabetic model at 12.5 mg/kg, po qd for 11 days; assay type: ADME, organism-based
Rattus norvegicus [13] = assay: Toxicity in Zucker rat sub-chronic fa/fa prediabetic model assessed as serum AST level at 3 mg/kg, po qd for 31 days measured on day 32 (reference value: 187 +/- 37 U/L); assay type: organism-based; settings: in vivo, 744 h
[14] = Cmax in […] chronic ob/ob model at 10 mg/kg, po qd for 28 days measured on day 28 post last dose; assay type: ADME, organism-based; design: dose 10 mg/kg, route oral; settings: in vivo
[15] = target: T1, Retinoic acid receptor RXR-alpha; assay: Agonist activity at recombinant GST-tagged human RXRalpha LBD assessed as fluorescein-labeled coactivator peptide recruitment preincubated with enzyme followed by coactivator addition by LanthaScreen TR-FRET assay
Rattus norvegicus [16] = assay: Effect on TGFB1 gene expression in epididymal white adipose tissue of Zucker rat sub-chronic fa/fa prediabetic model at 10 mg/kg, po qd for 15 days by microarray analysis relative to control; assay type: functional
Rattus norvegicus [17] = assay: Effect on MSMO1 gene expression in epididymal white adipose tissue of Zucker rat sub-chronic fa/fa prediabetic model at 10 mg/kg, po qd for 15 days by microarray analysis relative to control; assay type: functional
Rattus norvegicus [18] = assay: Effect on COX6A2 gene expression in epididymal white adipose tissue of Zucker rat sub-chronic fa/fa prediabetic model at 10 mg/kg, po qd for 15 days by microarray analysis relative to control; assay type: functional
Rattus norvegicus [19] = assay: Antidiabetic activity in Zucker rat sub-chronic fa/fa prediabetic model assessed as serum adiponectin level at 1 mg/kg, po qd for 4 days by ELISA (reference value: 9.1%); assay type: functional
[20] = AUC (0 to 24 hrs) in Zucker rat sub-chronic fa/fa prediabetic model at 3 mg/kg, po qd measured on day 1 post dose; assay type: ADME, organism-based; design: time < 24 hr, dose 3 mg/kg, route oral; settings: in vivo
Rattus norvegicus [21] = assay: Effect on NDUFB9 gene expression in epididymal white adipose tissue of Zucker rat sub-chronic fa/fa prediabetic model at 10 mg/kg, po qd for 15 days by microarray analysis relative to control; assay type: functional
[22] = Oral bioavailability in CD-1 mouse at 20 mg/kg administered via gavage by LC-MS analysis; assay type: ADME, organism-based; settings: in vivo
Rattus norvegicus [23] = assay: Antidiabetic activity in Zucker rat sub-chronic fa/fa prediabetic model assessed as fasting blood insulin level at 50 mg/kg, po qd for 31 days measured on day 29 post dose (reference value: 8.5 +/- 1.4 ug/L); assay type: functional
Rattus norvegicus [24] = assay: Effect on AADAT gene expression in epididymal white adipose tissue of Zucker rat sub-chronic fa/fa prediabetic model at 10 mg/kg, po qd for 15 days by microarray analysis relative to control; assay type: functional
Rattus norvegicus [25] = assay: Increase in IDH3A mRNA expression in epididymal white adipose tissue of Zucker rat sub-chronic fa/fa prediabetic model at 10 mg/kg, po qd for 15 days by RT-PCR method; assay type: functional, organism-based
[26] = Tmax in Sprague-Dawley rat at 10 mg/kg administered via oral gavage by LC-MS analysis; assay type: ADME, organism-based; settings: in vivo
Rattus norvegicus [27] = assay: Effect on NDUFB10 gene expression in epididymal white adipose tissue of Zucker rat sub-chronic fa/fa prediabetic model at 10 mg/kg, po qd for 15 days by microarray analysis relative to control; assay type: functional
Rattus norvegicus [28] = assay: Effect on GBE1 gene expression in epididymal white adipose tissue of Zucker rat sub-chronic fa/fa prediabetic model at 10 mg/kg, po qd for 15 days by microarray analysis relative to control; assay type: functional
Rattus norvegicus [29] = assay: Toxicity in Zucker rat sub-chronic fa/fa prediabetic model assessed as serum BUN level at 1 mg/kg, po qd for 31 days measured on day 32 (reference value: 28.3 +/- […]); assay type: organism-based; settings: in vivo, 744 h
Rattus norvegicus [30] = assay: Effect on NR1H2 gene expression in epididymal white adipose tissue of Zucker rat sub-chronic fa/fa prediabetic model at 10 mg/kg, po qd for 15 days by microarray analysis relative to control; assay type: functional
Rattus norvegicus [31] = assay: Effect on PPARGC1B gene expression in epididymal white adipose tissue of Zucker rat sub-chronic fa/fa prediabetic model at 10 mg/kg, po qd for 15 days by microarray analysis relative to control; assay type: functional
Rattus norvegicus [32] = assay: Effect on IGFBP4 gene expression in epididymal white adipose tissue of Zucker rat sub-chronic fa/fa prediabetic model at 10 mg/kg, po qd for 15 days by microarray analysis relative to control; assay type: functional
Rattus norvegicus [33] = assay: Toxicity in Zucker rat sub-chronic fa/fa prediabetic model assessed as serum triglyceride level at 50 mg/kg, po qd for 31 days measured on day 32 (reference value: 1382 +/- 268 mg/dl); assay type: organism-based; settings: in vivo, 744 h

With `CN1CC[C@@H](N2C(=O)S/C(=C\c3ccc4c(cnn4Cc4ccc(Cl)cc4C(F)(F)F)c3)C2=O)[C@H](F)C1` the “fold change (FC)” value (Rattus norvegicus [1]) was -1.452, the EC50 [2] was over 10 µM and the Cmax [3] was 207 ng/mL. For the same compound, the Vd [4] was 6.89 L/kg, the IC50 [5] was over 10 µM and the inhibition (Homo sapiens) was 50%. For the same compound, the “fold change (FC)” value (Rattus norvegicus [6]) was -1.488, the “fold change (FC)” value (Rattus norvegicus [7]) was -1.288 and the Tmax [8] was 2 h. The Activity (Rattus norvegicus [9]) was 4.8 µg/L, the Activity (Rattus norvegicus [10]) was 28.7 mg/dL and the Activity (Rattus norvegicus [11]) was 16701 mg·min/dL. For the same compound, the concentration at 264 h [12] was 814 ng/mL, the Activity (Rattus norvegicus [13]) was 111 U/L and the Cmax [14] was 454 ng/mL. For the same compound, the EC50 [15] was over 10 µM, the “fold change (FC)” value (Rattus norvegicus [16]) was -1.47 and the “fold change (FC)” value (Rattus norvegicus [17]) was -1.271. For the same compound, the “fold change (FC)” value (Rattus norvegicus [18]) was 1.35, the Activity (Rattus norvegicus [19]) was 8.6% and the AUC(0-t) at 24 h [20] was 5980 ng·h/mL. The “fold change (FC)” value (Rattus norvegicus [21]) was 1.214, the bioavailability [22] was 52% and the Activity (Rattus norvegicus [23]) was 0.7 µg/L. For the same compound, the “fold change (FC)” value (Rattus norvegicus [24]) was 2.931, the Activity (Rattus norvegicus [25]) was “Active” and the Tmax [26] was 1.5 h. For the same compound, the “fold change (FC)” value (Rattus norvegicus [27]) was 1.237, the “fold change (FC)” value (Rattus norvegicus [28]) was 1.79 and the Activity (Rattus norvegicus [29]) was 26.9 mg/dL. For the same compound, the “fold change (FC)” value (Rattus norvegicus [30]) was -1.407, the “fold change (FC)” value (Rattus norvegicus [31]) was 2.249 and the “fold change (FC)” value (Rattus norvegicus [32]) was -1.825. It also gave an Activity (Rattus norvegicus [33]) of 198 mg/dL.
